A short description of the assay: cytotoxicity in NIH3T3 fibroblasts, dose response, cytotoxicity control for HSP40 inhibitor project, cell-based, CellTiter-Glo luminescence, cherry-pick, set 2 (AID 624265).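 Also: cells exposed to compound for 48 hours before the ATP read; 0% = median neutral control signal and -100% = no luminescence left.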 The settings on record: NIH3T3 viability, CellTiter-Glo ATP luminescence.

The source made the active and inactive calls.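 The calls were made as follows: active = at a dose no more than twice the top valid tested dose, the fitted curve drops below -35% activity change; inactive = the rest, rising-direction activity included.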

Consider `Cc1ccc(C(=O)C(SC(C)(C)C)n2cncn2)cc1` (configuration not stated), for which the activity change, negative = toxicity (at 50 µM (top of the series)) was 10.4% (inactive). The same measure, in the same setting: the same measure for `C=CCOC(Cn1ccnc1)c1ccc(Cl)cc1Cl` (configuration not stated): 9.44% (inactive). On to `Cn1ccc(=Nc2ccc(NC(=O)c3ccc(N=c4ccn(C)c5ccc([N+](=O)[O-])cc45)cc3)cc2)cc1`, for which, where the note is “at 50 µM (top of the series)”, the activity change, negative = toxicity was 1.51% (inactive).

`CCC(C)Sc1cccc(-c2nc3ccccn3c2NCc2ccccc2)c1` (configuration not stated): the activity change, negative = toxicity (at 50 µM (top of the series)) is -15.9% (inactive). On the same count and under the same terms, under `CN(C)c1nc(SCc2ccc(Cl)cc2)nc2c1CCCC2` stands 9.05% (inactive). On the same count and under the same terms, under `CC(C)=CCc1c(O)ccc(C(=O)Cc2ccccc2)c1O` stands -2.45% (inactive).

With `C=CCN(CC=C)C(=S)NC(=O)c1ccc(C)c(Br)c1`, the activity change, negative = toxicity (at 50 µM (top of the series)) is 19.7% (inactive). On the same count and under the same terms, under `COc1ccc(C(=O)On2c(-c3ccc(Br)cc3)nc3ccccc3c2=O)cc1` stands 8% (inactive); under `O/N=C(\c1ccc(Cl)cc1Cl)c1ncc(C(F)(F)F)cc1Cl`, -0.787% (inactive).

In the case of `Clc1nc(-c2ccccn2)nc2scc(-c3ccccc3)c12`, the activity change, negative = toxicity (at 50 µM (top of the series)) was 5.16% (inactive). Still for that read-out and setting: under `CC1CCN(c2ccc3c(c2)S(=O)(=O)c2ccccc2C3=O)CC1` stands -1.31% (inactive); under `CC12CC3(C)CC(C)(C1)CC(NC(=O)N1CCCC1)(C2)C3`, 17.5% (inactive). The same measure, in the same setting: under `CCn1c(CNc2ccc(Cl)cc2)nnc1SCc1ccc(Cl)cc1` stands 12.6% (inactive).

In the case of `c1ccc(-c2ccc(SCc3cccnc3)nn2)nc1`, the activity change, negative = toxicity (at 50 µM (top of the series)) is -5.74% (inactive). The same measure, in the same setting: the same measure for `COc1cc([N+](=O)[O-])cc(/C=N/NC(=O)c2cncc(Br)c2)c1O`: -13.4% (inactive); for `CC(=O)C1=C(c2cccc([N+](=O)[O-])c2)N(C(C)=O)n2c(C)nnc2S1`: 4.36% (inactive); for `CC(C)(C)C(O)C(Cc1ccccc1Cl)n1cncn1` (configuration not stated): -1.54% (inactive). On the same count and under the same terms, the same measure for `O=C(O)c1ccccc1NC(c1ccccc1)c1ccc2cccnc2c1O` (configuration not stated): -15.4% (inactive); for `COc1ccc(N(C(=O)c2ccncc2)S(=O)(=O)c2ccccc2)cc1`: -6.26% (inactive); for `Cc1nc(SCc2ccc(OCCC(C)C)cc2)n[nH]1`: 3.46% (inactive). Still for that read-out and setting: under `CC1CCc2c(C(=O)Nc3ccccn3)csc2C1` (configuration not stated) stands -3.05% (inactive). Take `O=C(Nc1ccc(Cl)cc1C(=O)Nc1ccc(Br)cn1)c1ccco1`: for the setting “at 50 µM (top of the series)”, the activity change, negative = toxicity is -5.93% (inactive). Take `Cc1ccccc1Oc1nc(-c2ccccn2)nc2ccccc12`: the activity change, negative = toxicity (at 50 µM (top of the series)) was 6.99% (inactive). Same read-out and setting: under `O=[N+]([O-])c1cccc(C=NNc2ccc3ccccc3n2)c1O` stands -29.6% (inactive).

As to `C=CCNC(=S)N1CCC(Cc2ccccc2)CC1`, the activity change, negative = toxicity (at 50 µM (top of the series)) is 7.32% (inactive). Same read-out and setting: under `O=C(Nc1nnc(-c2cccs2)o1)c1cccc(Oc2ccccc2)c1` stands -7.72% (inactive); under `CCOC(=O)N1C(=O)C2(CCCCC2)N(c2ccccc2Cl)C1=S`, -8.13% (inactive). For `Nc1nc2sc3c(c2c(=O)s1)CCCC3`, the activity change, negative = toxicity (at 50 µM (top of the series)) was 13.7% (inactive). In the case of `CC(C)C(=O)NC(c1cccc([N+](=O)[O-])c1)c1ccc2cccnc2c1O` (configuration not stated), under “at 5.6 µM (top of the series)”, the activity change, negative = toxicity was -21% (inactive). Regarding `Cc1ccc2oc(-c3ccccc3)c(C(=O)O)c(=O)c2c1`, where the note is “at 50 µM (top of the series)”, the activity change, negative = toxicity was -13.9% (inactive).

Consider `Cc1ccc(NS(=O)(=O)c2ccc(N3CCN(c4ccc(O)cc4)CC3)c([N+](=O)[O-])c2)c(C)c1`, for which the activity change, negative = toxicity (at 50 µM (top of the series)) was 24.6% (inactive).

Take `COc1ccc(Sc2nc(-c3ccccn3)ncc2OC)cc1`: for the setting “at 50 µM (top of the series)”, the activity change, negative = toxicity was 5.95% (inactive).

For the compound `CCn1c2ccc(C)cc2c2nc3cc(C(=O)O)ccc3nc21`, the activity change, negative = toxicity (at 50 µM (top of the series)) is -4.25% (inactive). Still for that read-out and setting: under `O=C1c2ccccc2-n2c1nc1ccccc1c2=O` stands -25.8% (inactive).

As to `COc1ccc(O)c(C(=O)CC(=O)c2ccccc2C)c1`, the activity change, negative = toxicity (at 50 µM (top of the series)) is 0.039% (inactive). Same read-out and setting: the same measure for `CCN(CC)c1ccc(/C=N/NC(=O)c2c(Cl)cnn2C)c(O)c1`: -24.5% (inactive). The same measure, in the same setting: under `O=Cc1cc(N=Nc2ccccc2Cl)ccc1O` stands -3.57% (inactive); under `COC(=O)c1cccc2c1-c1ccccc1/C2=N/O`, 28.2% (inactive). Consider `CCCSC(=S)c1c(C)[nH]n(-c2ccccc2)c1=O`, for which the activity change, negative = toxicity (at 50 µM (top of the series)) was -14.1% (inactive). Same read-out and setting: under `O=C(CSc1ccc(-c2ccccn2)nn1)NCc1ccc(F)cc1` stands -2.59% (inactive); under `CCCCCOc1ccc(CSc2n[nH]c(C)n2)cc1`, 5.34% (inactive); under `O=C(Nc1cc(Oc2ccc(Cl)cc2)cc([N+](=O)[O-])c1)c1ccco1`, -2.9% (inactive).

For the origin of these results see PubChem BioAssay AID624265 (Broad Institute, 2012).
